Data reported in PMC12261233, “Photoactivatable Cyclometalated Ir(III) Compound Penetrates the Blood-Brain Barrier in 3D Spheroidal and Advanced 3D Organoid Models of Inherently Resistant and Aggressive Brain Tumors” (ACS Pharmacology & Translational Science, 2025).

Key:
Type in all cases: cell-based, human
hCMEC/D3 cells = test: Iridium uptake in Transwell binary coculture BBB model (ICP-MS), hCMEC/D3; conditions: 10 μM applied apically, 24 h
Description: The cellular uptake of anticancer compounds after penetrating the BBB is crucial for their efficacy in treating brain tumors. Understanding the extent of cellular uptake provides insights into the distribution and localization of these compounds within brain tumor cells, making such studies essential for assessing their potential efficacy. We utilized the static Transwell binary coculture BBB model, comprising an […] hCMEC/D3 cell line (representing the BBB) and a glioblastoma U87MG cell line. In this model, hCMEC/D3 cells were seeded on the apical side of the Transwell, while U87MG cells were seeded on the basolateral side. […] After a 24-h incubation, cells were harvested, counted, and the iridium uptake by both cell lines was analyzed using ICP-MS. […]
To confirm that the tested compounds can effectively target and accumulate in the desired U87MG glioblastoma cells, a coculture model was employed to monitor cellular uptake in both hCMEC/D3 cells and U87MG cells. […] The total iridium uptake by U87MG or hCMEC/D3 cells was analyzed 24 h after treatment. In brief, the apical and basolateral parts were separated, and each cellular model was harvested by trypsinization, pelleted by centrifugation, and counted. […] The final iridium content was determined through ICP-MS analysis. The experiments were replicated in triplicate, and the data are expressed as nanograms of iridium per one million cells.

[1] = test system: U87MG-RFP spheroids implanted into cerebral organoids; test: Glioblastoma intergrowth/spreading area in cerebral organoid-U87MG-RFP spheroid fusion system; conditions: for glioblastoma spreading area, Δ 0h-120h, not irradiated: TMZ 100 μM or Ir4 2 μM for 3 h, no blue light
Description: In this study, U87MG-RFP glioblastoma spheroids were preformed over 72 h, implanted into cerebral organoid tissue, and coembedded in Matrigel. […] Samples designated for irradiation were exposed to blue laser light (405 nm, 60 s, 1 mW) and subsequently cultured in drug-free medium for 120 h. Z-stacking confocal imaging and ImageJ analysis quantified the area of glioblastoma spreading (Figure , panels III and IV).
An implant fusion model was established to monitor the distribution of Ir4 within the tumor, represented by the implanted tumorspheres generated from U87MG, and healthy tissue, represented by the hiPSC-derived cerebral organoid. Before the implantation procedure, spheroids derived from U87MG glioblastoma were cultured for 72 h under 3D forming conditions using ULA plates (96-well U-shaped plate, Corning) in DMEM-F12 supplemented with 2% B27, epidermal growth factor (EGF) at 20 ng mL^–1, fibroblast growth factor 2 (FGF2) at 10 ng mL^–1, and BSA (0.15%). Cerebral organoids were generated through a four-step directed differentiation process from human induced pluripotent stem cells (hiPSCs, Gibco). The hiPSCs were cultured on Geltrex matrix (hESC-Qualified, Reduced Growth Factor Basement Membrane Matrix; Gibco) in StemFlex basal medium (DMEM/F12, Ham, 1:1) fully supplemented with StemFlex supplement (Gibco). The preformation of cerebral organoids, involving the formation of embryoid bodies (EBs), was maintained in U-shape ultralow attachment 96-well plates (ULA, Corning) with 9000 hiPSCs per well in fully supplemented Stemdiff Cerebral organoid medium and 10 μM of the rock inhibitor Y27632. The EBs were cultured for 4 days to establish round-shaped EBs with a diameter of approximately 400 μm. Subsequently, 2 EBs per well were transferred to 24-well ULA plates, and differentiation into neural ectoderm was induced for an additional 2 days using the Stemdiff Cerebral Organoid Kit (StemCell Technologies, CA). Following this, early organoids were embedded in the Matrigel matrix (suitable for organoid culture, Corning) and directed toward further differentiation into neuroectoderm. After the initial differentiation phase, early organoids were monitored for the development of optically clear neuroectoderm (characterized by an optically bright, translucent surface) and the formation of large buds of translucent ectoderm that were not radially organized. Postembedding, the organoids were cultured on 6-well ULA plates under continuous orbital shaker agitation (50 rpm). […] The samples were then transferred to confocal Petri dishes containing drug-free cerebral maturation medium and analyzed using a confocal microscope (Leica CM SP5, Leica, Germany). […]

[2] = test system: hiPSC-derived cerebral organoids; test: Cerebral organoid volume growth after treatment (healthy tissue); conditions: fusion system, untreated control 25%
Description: To assess the treatment’s impact on healthy tissue, cerebral organoid volumes were measured using phase-contrast or bright-field confocal microscopy with manually defined regions of interest.

`CCCCn1c2[n+](c3cc(C(=O)OC)ccc31)[Ir-3]13([Cl])([c]4ccccc4-2)[n+]2ccccc2-c2cc(-c4ccc(C)cc4)cc([n+]21)-c1cccc[n+]13.F[P-](F)(F)(F)(F)F` [Ir4] was tested, and the “iridium uptake by hCMEC/D3 cells” value (hCMEC/D3 cells) was 47 ± 7 ng Ir/10^6 cells, the “glioblastoma spreading area, Δ 0h-120h, irradiated” value ([1]; Ir4 2 μM 3 h, 405 nm 60 s 1 mW, 120 h drug-free) was 0.6 fold and the “glioblastoma spreading area, Δ 0h-120h, not irradiated” value ([1]; 120 h drug-free) was 2.1 fold. The “spreading area relative to TMZ” value ([1]; nonirradiated, Ir4 concentration 50 times lower than TMZ) was “four times smaller” and the “increase in cerebral organoid volume over 120 h” value [2] was 24%.

In the case of `Cn1nnc2c(C(N)=O)ncn2c1=O` [Temozolomide, reference compound], the “glioblastoma spreading area, Δ 0h-120h, not irradiated” value ([1]; 120 h drug-free) is reported as 8.7 fold and the “increase in cerebral organoid volume over 120 h” value [2] is reported as 21%.
